Several values for one entry are separate records, joined by “and”; a condition that tells them apart may be missing. Equal values may be shown once. Entries after “also recorded” stand apart in the source; their conditions may differ. Where a name gives a salt, the structure may show the parent alone. Read-outs that look alike come from different tables or passages of the source.
Columns and labels:
[1] = Stability of DCHA+ salts 3 heated in different solvents (31P NMR); type: physicochemical; details: for degraded at 3.5 h: water, read-out: conversion to phosphate
Procedure: Stability of DCHA^+ Salts 3 Heated in Different Solvents. 40 mg 3 (E or Z) was heated in 5 ml of alcohol mixture, H2 O or acetonitrile. Reaction progress was monitored by ^31 P NMR spectroscopy.

[2] = Stability of C-esters of Troika acid (E-2) in water; type: physicochemical
[3] = pH dependence of the stability of DCHA+ salts 3 in D2O (31P NMR); type: physicochemical; details: 22° C.; for stability in D2O: 24 h, pH 2-8; for remaining at 24 h / Z isomer formed from E-3 (% int, 31P NMR) / F, fragmentation product (HO)2P(O)OH from E-3 (% int) / H, hydrolysis product 4 from E-3 (% int) / E isomer formed from Z-3 (% int, 31P NMR) / F, fragmentation product (HO)2P(O)CN from Z-3 (% int) / H, hydrolysis product 4 from Z-3 (% int): t = 24 h
Procedure: pH Dependence of the Stability of DCHA^+ Salts 3. These experiments were carried out in 5 mm glass NMR tubes in D2 O at 22° C., concentration of 3 0.1% (w/v).

[4] = Alkaline hydrolysis of E-3 and Z-3 to salts 4; type: physicochemical; details: for time to complete hydrolysis: NaOH in D2O; for time of alkaline hydrolysis: aq. NaOH, 25° C., pH 13-14
Procedure: In an additional aspect of the present invention, C-alkyl esters of 3 can be stable under physiological conditions but can be reactive under more vigorous conditions. The stability of the parent Troika acids in H2 O were analyzed. Alkaline hydrolysis by methods known by those skilled in the art of E-3 and Z-3 (preferably, aq. NaOH, at a temperature of 25° C., at pH 13-14) can give the corresponding sodium salts E-4 and Z-4, the Z ester reacting much more rapidly (1 h vs. 70 h for E-3). Both salts 4 can be quite stable at high pH, typically, at pH values greater than 10, and room temperature, but at about pH 6 facile stereospecific fragmentations can be observed. […] The transformation of anti α-keto acid oximes to nitriles in aqueous solution at 40-100°C. is well known to those skilled in the art, but the corresponding process giving a phosphononitrile from a phosphonate α-oxime, observed with Z-4, was unexpected. Furthermore, an additional unexpected result in accordance with the present invention, was the finding that simple removal of the carboxy alkyl group of E-3 can create a reagent (E-4) capable of phosphorylation under mild aqueous conditions.
Synthesis of E4 & 5. 10 N NaOH ([…]) was added to E-3 (10 mg) in D2 O (0.4 ml) in an NMR tube, raising the pH to ~13. Hydrolysis was monitored by ^1 H and ^31 P NMR at room temperature. The reaction was complete in 3 d, giving a product identified by ^13 C and ^31 P NMR as E-4. ^13 C NMR (D2 O): δ (ppm) 161.8 (d, ^1 JPC =176 Hz, P--C=N), 175.4 (d, ^2 JPC =21 Hz, C=O); ^31 P NMR (D2 O, pH=13-14): δ (ppm) 2.8.
Acidification of Z-4 & 6. An analogous procedure for E-4 was carried out with the Z-3 isomer. Hydrolysis was complete within 1 h, yielding Z-4. […] (D2 O, pH=13-14): δ (ppm) 161.1 (d, ^1 JPC =127 Hz, P--C=N), […], 171.9 (d, ^2 JPC =17 Hz, C=O); ^31 P NMR (D2 O, pH=13-14): δ (ppm), 2.0.

[5] = for fragmentation product: about pH 6; for stability at high pH: pH greater than 10, room temperature
[6] = type: physicochemical
[7] = Photochemical activation (UV irradiation) of ONBCE-TA in Tris buffer; type: physicochemical
Procedure: Photochemical Activation Example. 5 mg of o-Nitrobenzyl (E)-dihydroxyphosphinyl)(hydroxyimino)acetate (ONBCE-TA) (prepared analogously to PNHDA) dissolved in 0.5 ml of 100 mM Tris buffer (pH 6.9) was irradiated in a Rayonet apparatus for 17 hr at 39° C. Phosphoric acid (the product from phosphorylation of solvent water) was obtained, yield 11%. The phosphorylation was not noticed in the absence of UV irradiation.

[8] = pH 10, 27° C.; known to those skilled in the art; cited from earlier work
[9] = Exp 2, EtOH:i-PrOH 1:1, 79° C., 30 h
[10] = Exp 3, EtOH:t-BuOH 1:1, 79° C., 28 h
[11] = Exp 5, H2O (pH 6-7), 82-84° C., 4.0 h
[12] = Exp 8, H2O (pH 6-7), 82-84° C., 5.7 h

COC(=O)/C(=N\O)P(=O)(O)O [E-2, methyl α-(hydroxyimino)phosphonoacetic acid]
thermal stability ([1]; 1 d in refluxing AN, DCHA+ salt): decomposed to polyphosphates
stability in water ([2]; H2O at physiological pH): stable
stability in water ([2]; neutral and acidic pH, room temperature): stable at both acidic and neutral pH; also recorded: stable in water at room temperature

COC(=O)/C(=N\O)P(=O)(O)O [E-3, Dicyclohexylammonium E-Methyl (Hydroxyimino)phosphonoacetate]
stability in D2O [3]: stable
E isomer (% int, 31P NMR) ([3]; t = 0, pH 2.0, D2O): 100%
E isomer (% int, 31P NMR) ([3]; t = 0, pH 4.0, D2O): 100%
E isomer (% int, 31P NMR) ([3]; t = 0, pH 6.2, D2O): 100%
E isomer (% int, 31P NMR) ([3]; t = 0, pH 8.1, D2O): 100%
E isomer (% int, 31P NMR) ([3]; t = 0, pH 10.4, D2O): 100%
E isomer (% int, 31P NMR) ([3]; t = 0, pH 11.0, D2O): 100%
remaining at 24 h ([3]; pH 2.0, D2O, read-out: E isomer (% int, 31P NMR)): 100%
remaining at 24 h ([3]; pH 4.0, D2O, read-out: E isomer (% int, 31P NMR)): 100%
Z isomer formed from E-3 (% int, 31P NMR) ([3]; pH 6.2, D2O): 8.9%
remaining at 24 h ([3]; pH 6.2, D2O, read-out: E isomer (% int, 31P NMR)): 91.1%
Z isomer formed from E-3 (% int, 31P NMR) ([3]; pH 8.1, D2O): 8.7%
remaining at 24 h ([3]; pH 8.1, D2O, read-out: E isomer (% int, 31P NMR)): 91.3%
F, fragmentation product (HO)2P(O)OH from E-3 (% int) ([3]; pH 10.4, D2O): 1.2%
H, hydrolysis product 4 from E-3 (% int) ([3]; pH 10.4, D2O): 6.9%
Z isomer formed from E-3 (% int, 31P NMR) ([3]; pH 10.4, D2O): 3.0%
remaining at 24 h ([3]; pH 10.4, D2O, read-out: E isomer (% int, 31P NMR)): 87.2%
F, fragmentation product (HO)2P(O)OH from E-3 (% int) ([3]; pH 11.0, D2O): 3.6%
H, hydrolysis product 4 from E-3 (% int) ([3]; pH 11.0, D2O): 18.4%
Z isomer formed from E-3 (% int, 31P NMR) ([3]; pH 11.0, D2O): 1.8%
remaining at 24 h ([3]; pH 11.0, D2O, read-out: E isomer (% int, 31P NMR)): 76.2%
stability on heating ([1]; 5 h in 1:1 MeOH:i-PrOH, 72° C.): unchanged
Et phosphate and i-Pr phosphate formed ([1]; 30 h in 1:1 EtOH:i-PrOH, 79° C.): 84%
Et-phosphate (yield, %) [1, 9]: 48.3%
Z-isomer (yield, %) [1, 9]: 2.5%
i-Pr-phosphate (yield, %) [1, 9]: 35.8%
phosphate (yield, %) [1, 9]: 8.5%
s.m. (%) [1, 9]: 4.9%
Et-phosphate (yield, %) [1, 10]: 33.9%
Z-isomer (yield, %) [1, 10]: 29.4%
phosphate (yield, %) [1, 10]: 9.4%
s.m. (%) [1, 10]: 10.4%
t-Bu-phosphate (yield, %) [1, 10]: 16.9%
phosphate (yield, %) ([1]; Exp 4, H2O (pH 4.0), 82-84° C., 3.5 h): 100%
phosphate (yield, %) [1, 11]: 87.7%
s.m. (%) [1, 11]: 12.3%
phosphate (yield, %) ([1]; Exp 6, MeCN, 81° C., 3.5 h): 0.6%
phosphononitrile (yield, %) ([1]; Exp 6, MeCN, 81° C., 3.5 h): 2.1%
polyphosphates (yield, %) ([1]; Exp 6, MeCN, 81° C., 3.5 h): 80.9%
s.m. (%) ([1]; Exp 6, MeCN, 81° C., 3.5 h): 16.4%
polyphosphate products ([1]; refluxing acetonitrile, several hours): 81%
degraded at 3.5 h ([1]; H2O, pH 4.0, 3.5 h, 82-84° C.): 100%
degraded at 3.5 h ([1]; H2O, pH ~6.5, 3.5 h, 82-84° C.): 88%
time to complete hydrolysis ([4]; pH ~13, room temperature): 3 days
time of alkaline hydrolysis [4]: 70 h

O=C(O)/C(=N\O)P(=O)(O)O [E-4]
fragmentation product [5]: exclusively orthophosphoric acid
stability at high pH [5]: quite stable
half-life (physchem; d2o, pH 5.7): < 10 min
half-life (physchem; water, pH 6): < 10 min

COP(=O)(O)/C(=N/O)C(=O)O [E-13, Bis-DCHA^+ Salt (E-13) of (E)-(Hydroxyimino)-(hydroxymethoxyphosphinyl)acetic Acid]
ethyl and t-butyl methyl phosphate, total ([6]; 1:1 EtOH-t-BuOH): 24%
phosphorylation products ([6]; heated in acetonitrile or EtOH): 16-19%

O=C(OCc1ccccc1[N+](=O)[O-])/C(=N\O)P(=O)(O)O [ONBCE-TA]
phosphoric acid formed (yield) ([7]; UV, 17 hr, 39° C., 100 mM Tris pH 6.9): 11%
phosphorylation without irradiation ([7]; absence of UV irradiation): not noticed

COC(=O)/C(=N/O)P(=O)(O)O [Z-3, Bis(dicyclohexylammonium) Z-Methyl (Hydroxyimino)phosphonoacetate]
stability in D2O [3]: stable
Z isomer (% int, 31P NMR) ([3]; t = 0, pH 2.0, D2O): 100%
Z isomer (% int, 31P NMR) ([3]; t = 0, pH 4.2, D2O): 100%
Z isomer (% int, 31P NMR) ([3]; t = 0, pH 6.7, D2O): 100%
Z isomer (% int, 31P NMR) ([3]; t = 0, pH 8.3, D2O): 100%
Z isomer (% int, 31P NMR) ([3]; t = 0, pH 10.4, D2O): 100%
Z isomer (% int, 31P NMR) ([3]; t = 0, pH 11.0, D2O): 100%
remaining at 24 h ([3]; pH 2.0, D2O, read-out: Z isomer (% int, 31P NMR)): 100%
remaining at 24 h ([3]; pH 4.2, D2O, read-out: Z isomer (% int, 31P NMR)): 100%
E isomer formed from Z-3 (% int, 31P NMR) ([3]; pH 6.7, D2O): 5.0%
remaining at 24 h ([3]; pH 6.7, D2O, read-out: Z isomer (% int, 31P NMR)): 95%
E isomer formed from Z-3 (% int, 31P NMR) ([3]; pH 8.3, D2O): 7.4%
remaining at 24 h ([3]; pH 8.3, D2O, read-out: Z isomer (% int, 31P NMR)): 92.6%
E isomer formed from Z-3 (% int, 31P NMR) ([3]; pH 10.4, D2O): 8.5%
F, fragmentation product (HO)2P(O)CN from Z-3 (% int) ([3]; pH 10.4, D2O): 1.7%
H, hydrolysis product 4 from Z-3 (% int) ([3]; pH 10.4, D2O): 2.6%
remaining at 24 h ([3]; pH 10.4, D2O, read-out: Z isomer (% int, 31P NMR)): 87.2%
F, fragmentation product (HO)2P(O)CN from Z-3 (% int) ([3]; pH 11.0, D2O): 9.2%
H, hydrolysis product 4 from Z-3 (% int) ([3]; pH 11.0, D2O): 14.5%
remaining at 24 h ([3]; pH 11.0, D2O, read-out: Z isomer (% int, 31P NMR)): 76.3%
stability on heating ([1]; 4 h in 1:1 EtOH:i-PrOH, 79° C.): stable
E-isomer (yield, %) [1, 12]: 4.7% and 5%
phosphate (yield, %) [1, 12]: 27.8% and 28%
phosphononitrile (yield, %) [1, 12]: 13.4% and 13%
s.m. (%) [1, 12]: 54.1%
conversion ([1]; H2O, 5.7 h, 82-84° C.): 46%
time to complete hydrolysis ([4]; room temperature): ≤ 0.042 days
time of alkaline hydrolysis [4]: 1 h

O=C(O)/C(=N/O)P(=O)(O)O [Z-4]
fragmentation product [5]: cyanophosphonic acid
stability at high pH [5]: quite stable
half-life (physchem; d2o, pH 6): ~5 min

O=C(CP(=O)(O)O)Oc1ccc([N+](=O)[O-])cc1 [p-nitrophenyl phosphonoacetate]
hydrolysis vs. p-nitrophenyl acetate (times slower) [8]: 250 ×

Reference: patent publication US5948931A (priority 1997, dated 1999)
